One assay deals with T1, human NPR1 (Homo sapiens, UniProt P16066).
T1 construct: host or cells: CHO-K1
T1 sequence (P16066 33-1061): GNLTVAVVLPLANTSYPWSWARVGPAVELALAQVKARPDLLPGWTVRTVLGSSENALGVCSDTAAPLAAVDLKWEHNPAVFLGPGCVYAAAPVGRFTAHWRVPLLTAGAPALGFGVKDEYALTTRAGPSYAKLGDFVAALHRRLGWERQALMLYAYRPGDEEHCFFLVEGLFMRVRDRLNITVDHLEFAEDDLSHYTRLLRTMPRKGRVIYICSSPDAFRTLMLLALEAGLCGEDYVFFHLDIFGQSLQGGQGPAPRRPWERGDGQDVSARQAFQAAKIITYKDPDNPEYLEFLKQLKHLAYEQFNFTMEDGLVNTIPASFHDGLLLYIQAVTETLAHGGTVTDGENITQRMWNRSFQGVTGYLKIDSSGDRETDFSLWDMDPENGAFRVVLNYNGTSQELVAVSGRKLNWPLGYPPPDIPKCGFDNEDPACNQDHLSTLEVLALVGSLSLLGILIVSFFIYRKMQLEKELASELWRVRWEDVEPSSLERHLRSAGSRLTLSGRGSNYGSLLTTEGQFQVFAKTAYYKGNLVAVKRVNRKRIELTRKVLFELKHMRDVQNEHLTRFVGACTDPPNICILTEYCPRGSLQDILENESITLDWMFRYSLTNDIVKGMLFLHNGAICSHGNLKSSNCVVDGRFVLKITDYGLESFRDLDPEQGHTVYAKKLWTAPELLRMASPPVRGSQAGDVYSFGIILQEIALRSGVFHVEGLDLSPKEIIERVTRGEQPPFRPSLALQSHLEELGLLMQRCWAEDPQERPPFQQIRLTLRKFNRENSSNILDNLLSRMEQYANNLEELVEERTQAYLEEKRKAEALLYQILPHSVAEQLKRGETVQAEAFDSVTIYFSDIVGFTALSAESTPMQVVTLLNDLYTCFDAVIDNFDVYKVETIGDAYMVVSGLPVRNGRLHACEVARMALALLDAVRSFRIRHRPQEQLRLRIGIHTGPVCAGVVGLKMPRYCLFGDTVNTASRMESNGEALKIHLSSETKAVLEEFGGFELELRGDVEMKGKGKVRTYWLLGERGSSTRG
Put plainly: Cellular cGMP production assay, human NPR1 expressing CHO-K1 cells (CisBio HTRF). Type of assay: cell-based. The note with it: for AC50: cGMP production, 30 min at 37° C., 12-point dose-response from 30 μM; for Human NPR1 Amax (% of ANP): maximum cGMP production as percentage of the maximum cGMP produced with ANP. An outline of the steps: (§1)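 Cells receive IBMX (1 mM) assay buffer plus test compound over twelve threefold dilutions starting at 30 μM, and cGMP accumulates for 30 min at 37 °C. Lysates are then incubated one hour at room temperature with d2-labelled cGMP and cryptate-labelled antibody before time-resolved fluorescence reading.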
(In general: TR-FRET usually uses a lanthanide donor and a delayed reading to cut background.)

Another assay has as its target monkey NPR1 (Macaca fascicularis, UniProt A0A7N9DBT9). The experiment in a line: Cellular cGMP production assay, monkey NPR1 expressing CHO-K1 cells (CisBio HTRF). Type of assay: cell-based. The note with it: for Monkey NPR1 Amax (% of ANP): maximum cGMP production as percentage of the maximum cGMP produced with ANP. An outline of the steps:
as §1

Where [1] appears, read: cGMP production, monkey NPR1 CHO-K1 cells, 30 min at 37° C., 12-point dose-response from 30 μM, read-out: Monkey NPR1 AC50.

Where two headings read alike, the source gives them in different places.

monkey NPR1, sequence (A0A7N9DBT9 entry or part of it): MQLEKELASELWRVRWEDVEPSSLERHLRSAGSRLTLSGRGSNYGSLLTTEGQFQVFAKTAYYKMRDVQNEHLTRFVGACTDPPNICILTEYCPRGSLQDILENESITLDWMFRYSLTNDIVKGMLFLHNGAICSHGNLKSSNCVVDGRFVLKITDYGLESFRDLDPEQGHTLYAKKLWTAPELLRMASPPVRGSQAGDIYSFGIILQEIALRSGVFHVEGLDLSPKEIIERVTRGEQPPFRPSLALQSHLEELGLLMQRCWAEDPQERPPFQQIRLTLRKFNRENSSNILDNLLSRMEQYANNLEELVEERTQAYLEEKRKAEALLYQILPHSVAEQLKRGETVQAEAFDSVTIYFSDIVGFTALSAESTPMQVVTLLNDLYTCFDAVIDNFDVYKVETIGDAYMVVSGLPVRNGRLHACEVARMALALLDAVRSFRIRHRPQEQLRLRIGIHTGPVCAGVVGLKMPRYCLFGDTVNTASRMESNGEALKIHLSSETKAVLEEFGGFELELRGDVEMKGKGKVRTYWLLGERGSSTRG

For `CC[C@H]([C@H]1CC[C@H](C(=O)O)CC1)N(C)c1nc2c(c(N[C@@H](CN3CCCC[C@@H]3CO)c3cnn(C)c3)n1)C[C@H](c1ccccc1)CC2` [Compound 149, (1R,4r)-4-((R)-1-(((R)-4-(((R)-2-((R)-2-(hydroxymethyl)piperidin-1-yl)-1-(1-methyl-1H-pyrazol-4-yl)ethyl)amino)-6-phenyl-5,6,7,8-tetrahydroquinazolin-2-yl)(methyl)amino)propyl)cyclohexane-1-carboxylic acid], on human NPR1, the AC50 (in general, the concentration at which the activity in the assay is half-maximal) is 1.14 µM and the “Human NPR1 Amax (% of ANP)” value was 130.209 % of ANP. At monkey NPR1 (setting [1]), the AC50 turned out to be 1.02 µM. In addition, the “Monkey NPR1 Amax (% of ANP)” value on monkey NPR1 (monkey NPR1 CHO-K1 cells) is listed as 164.167 % of ANP.

In the case of `CC[C@H]([C@H]1CC[C@H](C(=O)O)CC1)N(C)c1nc2c(c(N[C@@H](CN3CCCC(F)(F)CC3)c3cnn(C)c3)n1)C[C@H](c1ccccc1)CC2` [Compound 150, (1R,4r)-4-((R)-1-(((R)-4-(((R)-2-(4,4-difluoroazepan-1-yl)-1-(1-methyl-1H-pyrazol-4-yl)ethyl)amino)-6-phenyl-5,6,7,8-tetrahydroquinazolin-2-yl)(methyl)amino)propyl)cyclohexane-1-carboxylic acid], the figures for the AC50 at human NPR1 and on monkey NPR1 (setting [1]) were 1.16 µM and 1.04 µM, respectively. Moreover, the “Human NPR1 Amax (% of ANP)” value on human NPR1 was 130.487 % of ANP. For the same molecule, the “Monkey NPR1 Amax (% of ANP)” value at monkey NPR1 (monkey NPR1 CHO-K1 cells) is given as 156.200 % of ANP.

Turning to `CC[C@@H](Nc1nc2c(c(N[C@@H](CN3CCC(OC)CC3)c3cnn(C)c3)n1)C[C@H](c1ccccc1)CC2)[C@H]1CC[C@H](C(=O)O)CC1` [Compound 151, (1R,4r)-4-((R)-1-(((R)-4-(((R)-2-(4-methoxypiperidin-1-yl)-1-(1-methyl-1H-pyrazol-4-yl)ethyl)amino)-6-phenyl-5,6,7,8-tetrahydroquinazolin-2-yl)amino)propyl)cyclohexane-1-carboxylic acid], the AC50 worked out at 1.18 µM on human NPR1 and 1.33 µM on monkey NPR1 (setting [1]). For the same molecule, the “Human NPR1 Amax (% of ANP)” value at human NPR1 is on record as 88.350 % of ANP. In addition, the “Monkey NPR1 Amax (% of ANP)” value on monkey NPR1 (monkey NPR1 CHO-K1 cells) is 96.950 % of ANP.

As for `CC[C@H]([C@H]1CC[C@H](C(=O)O)CC1)N(C)c1nc2c(c(N[C@@H](CN3CCC[C@H](C)C3)c3cnn(C)c3)n1)CN(C1CCCCC1)CC2` [Compound 152, (1R,4r)-4-((R)-1-((6-cyclohexyl-4-(((R)-1-(1-methyl-1H-pyrazol-4-yl)-2-((S)-3-methylpiperidin-1-yl)ethyl)amino)-5,6,7,8-tetrahydropyrido[4,3-d]pyrimidin-2-yl)(methyl)amino)propyl)cyclohexane-1-carboxylic acid], on human NPR1, half-maximal activity (AC50) was put at 1.19 µM and the “Human NPR1 Amax (% of ANP)” value is reported as 104.537 % of ANP. Moreover, half-maximal activity at monkey NPR1 (AC50) was put at 0.6 µM. In addition, the “Monkey NPR1 Amax (% of ANP)” value on monkey NPR1 (monkey NPR1 CHO-K1 cells) is on record as 106.260 % of ANP.

For `CCn1cc([C@H](CN2C3CCCC2CCC3)Nc2nc(N[C@H](C)c3ccc(C(=O)O)cc3)nc3c2C[C@H](c2cccc(F)c2)CC3)cn1` [Compound 153, 4-((R)-1-(((R)-4-(((R)-2-((1S,5S)-9-azabicyclo[3.3.1]nonan-9-yl)-1-(1-ethyl-1H-pyrazol-4-yl)ethyl)amino)-6-(3-fluorophenyl)-5,6,7,8-tetrahydroquinazolin-2-yl)amino)ethyl)benzoic acid], on human NPR1, the AC50 is 1.2 µM and the “Human NPR1 Amax (% of ANP)” value is given as 93.868 % of ANP. Also, at monkey NPR1, half-maximal activity (AC50) was put at 0.753 µM. Also, the “Monkey NPR1 Amax (% of ANP)” value on monkey NPR1 (monkey NPR1 CHO-K1 cells) is reported as 98.372 % of ANP.

Consider `CC[C@H]([C@H]1CC[C@H](C(=O)O)CC1)N(C)c1nc2c(c(N[C@@H](CN3CCC(O)CC3)c3cnn(CC)c3)n1)C[C@H](c1ccccc1)CC2` [Compound 154, (1R,4r)-4-((R)-1-(((R)-4-(((R)-1-(1-ethyl-1H-pyrazol-4-yl)-2-(4-hydroxypiperidin-1-yl)ethyl)amino)-6-phenyl-5,6,7,8-tetrahydroquinazolin-2-yl)(methyl)amino)propyl)cyclohexane-1-carboxylic acid], for which, at human NPR1, the activity was half-maximal at 1.24 µM (AC50) and the “Human NPR1 Amax (% of ANP)” value is reported as 105.125 % of ANP. The AC50 at monkey NPR1 (setting [1]) turned out to be 0.802 µM. Further, on monkey NPR1 (monkey NPR1 CHO-K1 cells), the “Monkey NPR1 Amax (% of ANP)” value is reported as 97.456 % of ANP.

As for `CC[C@@H](N(C)c1nc2c(c(N[C@@H](CN3CCC[C@H](C)C3)c3ccnn3C)n1)C[C@H](c1cccc(F)c1)CC2)C12CC(C(=O)O)(C1)C2` [Compound 155, 3-((R)-1-(((R)-6-(3-fluorophenyl)-4-(((S)-1-(1-methyl-1H-pyrazol-5-yl)-2-((S)-3-methylpiperidin-1-yl)ethyl)amino)-5,6,7,8-tetrahydroquinazolin-2-yl)(methyl)amino)propyl)bicyclo[1.1.1]pentane-1-carboxylic acid], on human NPR1, the AC50 worked out at 1.29 µM and the “Human NPR1 Amax (% of ANP)” value is given as 97.313 % of ANP. In addition, the AC50 at monkey NPR1 (setting [1]) came to 0.648 µM. Also, the “Monkey NPR1 Amax (% of ANP)” value at monkey NPR1 (monkey NPR1 CHO-K1 cells) is reported as 95.840 % of ANP.

As to `CC[C@H]([C@H]1CC[C@H](C(=O)O)CC1)N(C)c1nc2c(c(N[C@@H](CN3CCCC(F)C3)c3cnn(C)c3)n1)C[C@H](c1ccccc1)CC2` (stereo partly drawn) [Compound 156, (1R,4r)-4-((1R)-1-(((6R)-4-(((1R)-2-(3-fluoropiperidin-1-yl)-1-(1-methyl-1H-pyrazol-4-yl)ethyl)amino)-6-phenyl-5,6,7,8-tetrahydroquinazolin-2-yl)(methyl)amino)propyl)cyclohexane-1-carboxylic acid], on human NPR1, the AC50 stood at 1.3 µM and the “Human NPR1 Amax (% of ANP)” value is on record as 93.013 % of ANP. In addition, the AC50 at monkey NPR1 (setting [1]) turned out to be 1.16 µM. In addition, on monkey NPR1 (monkey NPR1 CHO-K1 cells), the “Monkey NPR1 Amax (% of ANP)” value is 105.900 % of ANP.

As for `CC[C@H]([C@H]1CC[C@H](C(=O)O)CC1)N(C)c1nc2c(c(N[C@@H](CN3CCCCC3)c3cnn(C)c3)n1)CN(c1cccc(F)c1)CC2` [Compound 157, (1R,4r)-4-((R)-1-((6-(3-fluorophenyl)-4-(((R)-1-(1-methyl-1H-pyrazol-4-yl)-2-(piperidin-1-yl)ethyl)amino)-5,6,7,8-tetrahydropyrido[4,3-d]pyrimidin-2-yl)(methyl)amino)propyl)cyclohexane-1-carboxylic acid], at human NPR1, the AC50 was 1.43 µM and the “Human NPR1 Amax (% of ANP)” value was 99.549 % of ANP. Also, on monkey NPR1 (setting [1]), the AC50 was found to be 0.999 µM. Further, the “Monkey NPR1 Amax (% of ANP)” value on monkey NPR1 (monkey NPR1 CHO-K1 cells) is recorded as 105.667 % of ANP.

With `CC(Nc1nc2c(c(N[C@@H](CN3CCCC3)c3ccccc3)n1)CC(c1ccccc1)CC2)[C@H]1CC[C@H](C(=O)O)CC1` (stereo partly drawn) [Compound 158, (1S,4r)-4-((1S)-1-((6-phenyl-4-(((R)-1-phenyl-2-(pyrrolidin-1-yl)ethyl)amino)-5,6,7,8-tetrahydroquinazolin-2-yl)amino)ethyl)cyclohexane-1-carboxylic acid], at human NPR1, the activity was half-maximal at 1.43 µM (AC50) and the “Human NPR1 Amax (% of ANP)” value is on record as 109.837 % of ANP. Also, the AC50 at monkey NPR1 (setting [1]) was 1.27 µM. Also, the “Monkey NPR1 Amax (% of ANP)” value on monkey NPR1 (monkey NPR1 CHO-K1 cells) is 165.777 % of ANP.

Take `C[C@@H](Nc1nc2c(c(N[C@@H](CN3CCCC3)c3ccccc3)n1)C[C@H](c1ccccc1)CC2)c1ccc(C(=O)O)cc1` [Compound 159, 4-((R)-1-(((R)-6-phenyl-4-(((R)-1-phenyl-2-(pyrrolidin-1-yl)ethyl)amino)-5,6,7,8-tetrahydroquinazolin-2-yl)amino)ethyl)benzoic acid]: at human NPR1, the activity was half-maximal at 1.58 µM (AC50) and the “Human NPR1 Amax (% of ANP)” value is reported as 92.446 % of ANP. In addition, the AC50 at monkey NPR1 (setting [1]) was 0.503 µM. Besides, the “Monkey NPR1 Amax (% of ANP)” value on monkey NPR1 (monkey NPR1 CHO-K1 cells) is 98.468 % of ANP.

The values above are taken from patent publication US12129246B1, “Hydroquinazoline derivatives for the treatment of a disease or disorder” (Novartis AG, priority 2023, dated 2024).
